Reference: PubChem BioAssay AID2060494 (Molecular Pharmacology Branch, DTP, NCI, 2025)

Tested on: 435261-313-R-J1-PDC complex spheroid viability
Assay: Anticancer human tumor 435261-313-R-J1-PDC patient-derived colon adenocarcinoma cell line growth inhibition [GQUAD]
Conditions: for IC50: curve of first compound; for viability, T/C: stronger effect = lower value
Method in brief: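 Multi-cell-type spheroids of tumor cells with HUVEC and mesenchymal stem cells, treated with drug combinations. Concentrations descend in half-log steps from near clinical Cmax, or from 10 microM where Cmax is unknown; viability read-out.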

[1] = second compound 0.0316 µM, first compound 0.0316 µM
[2] = second compound 0.0316 µM, first compound 0.1 µM
[3] = second compound 0.0316 µM, first compound 0.316 µM
[4] = second compound 0.0316 µM, first compound 1 µM
[5] = second compound 0.0316 µM, first compound 3.16 µM
[6] = second compound 0.0316 µM, first compound 10 µM
[7] = second compound 0.1 µM, first compound 0.0316 µM
[8] = second compound 0.1 µM, first compound 0.1 µM
[9] = second compound 0.1 µM, first compound 0.316 µM
[10] = second compound 0.1 µM, first compound 1 µM
[11] = second compound 0.1 µM, first compound 3.16 µM
[12] = second compound 0.1 µM, first compound 10 µM
[13] = second compound 0.316 µM, first compound 0.0316 µM
[14] = second compound 0.316 µM, first compound 0.1 µM
[15] = second compound 0.316 µM, first compound 0.316 µM
[16] = second compound 0.316 µM, first compound 1 µM
[17] = second compound 0.316 µM, first compound 3.16 µM
[18] = second compound 0.316 µM, first compound 10 µM
[19] = second compound 1 µM, first compound 0.0316 µM
[20] = second compound 1 µM, first compound 0.1 µM
[21] = second compound 1 µM, first compound 0.316 µM
[22] = second compound 1 µM, first compound 1 µM
[23] = second compound 1 µM, first compound 3.16 µM
[24] = second compound 1 µM, first compound 10 µM
[25] = second compound 3.16 µM, first compound 0.0316 µM
[26] = second compound 3.16 µM, first compound 0.1 µM
[27] = second compound 3.16 µM, first compound 0.316 µM
[28] = second compound 3.16 µM, first compound 1 µM
[29] = second compound 3.16 µM, first compound 3.16 µM
[30] = second compound 3.16 µM, first compound 10 µM
[31] = second compound 10 µM, first compound 0.0316 µM
[32] = second compound 10 µM, first compound 0.1 µM
[33] = second compound 10 µM, first compound 0.316 µM
[34] = second compound 10 µM, first compound 1 µM
[35] = second compound 10 µM, first compound 3.16 µM
[36] = second compound 10 µM, first compound 10 µM
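Also: spheroids exposed to the agents for seven days before readout.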
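For viability, T/C in this document: percent of vehicle control viability with DMSO wells as 100%.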

SMILES: Cc1cccc(N(C)C(=O)C2C(O)CCN2c2nc(C)cc(C(F)(F)F)c2C#N)c1 (centres undefined) + Cc1[nH]c2ccc(F)cc2c1-c1nc2c3cccnc3c3ncccc3c2[nH]1
- IC50 (second compound 0.0316 µM): > 10 µM
- IC50 (second compound 0.1 µM): > 10 µM
- IC50 (second compound 0.316 µM): > 10 µM
- IC50 (second compound 1 µM): > 10 µM
- IC50 (second compound 3.16 µM): < 0.0316 µM
- IC50 (second compound 10 µM): < 0.0316 µM
- viability, T/C [1]: 123%
- viability, T/C [2]: 111%
- viability, T/C [3]: 121%
- viability, T/C [4]: 91.4%
- viability, T/C [5]: 97.2%
- viability, T/C [6]: 92.3%
- viability, T/C [7]: 106%
- viability, T/C [8]: 141%
- viability, T/C [9]: 138%
- viability, T/C [10]: 135%
- viability, T/C [11]: 117%
- viability, T/C [12]: 113%
- viability, T/C [13]: 76.1%
- viability, T/C [14]: 105%
- viability, T/C [15]: 104%
- viability, T/C [16]: 104%
- viability, T/C [17]: 117%
- viability, T/C [18]: 115%
- viability, T/C [19]: 95.2%
- viability, T/C [20]: 86.7%
- viability, T/C [21]: 152%
- viability, T/C [22]: 129%
- viability, T/C [23]: 117%
- viability, T/C [24]: 59%
- viability, T/C [25]: 30.2%
- viability, T/C [26]: 41.4%
- viability, T/C [27]: 38.5%
- viability, T/C [28]: 44.9%
- viability, T/C [29]: 47.7%
- viability, T/C [30]: 42.9%
- viability, T/C [31]: 27.1%
- viability, T/C [32]: 27.7%
- viability, T/C [33]: 33.7%
- viability, T/C [34]: 27.1%
- viability, T/C [35]: 28.7%
- viability, T/C [36]: 23.5%

SMILES: CC(=O)O[C@H]1C(=O)[C@@]2(C)[C@H]([C@H](OC(=O)c3ccccc3)[C@]3(O)C[C@H](OC(=O)[C@H](O)[C@@H](NC(=O)c4ccccc4)c4ccccc4)C(C)=C1C3(C)C)[C@]1(OC(C)=O)CO[C@@H]1C[C@@H]2O + CN(C)c1ccc(Nc2c3ccc(NC(=O)CCN4CCCC4)cc3nc3cc(NC(=O)CCN4CCCC4)ccc23)cc1
- IC50 (second compound 0.0316 µM): > 10 µM
- IC50 (second compound 0.1 µM): > 10 µM
- IC50 (second compound 0.316 µM): > 10 µM
- IC50 (second compound 1 µM): > 10 µM
- IC50 (second compound 3.16 µM): > 10 µM
- IC50 (second compound 10 µM): < 0.0316 µM
- viability, T/C [1]: 94.3%
- viability, T/C [2]: 78.6%
- viability, T/C [3]: 84.6%
- viability, T/C [4]: 69.9%
- viability, T/C [5]: 69.1%
- viability, T/C [6]: 76.5%
- viability, T/C [7]: 71.9%
- viability, T/C [8]: 72.5%
- viability, T/C [9]: 77.4%
- viability, T/C [10]: 62%
- viability, T/C [11]: 75.3%
- viability, T/C [12]: 70.5%
- viability, T/C [13]: 72.5%
- viability, T/C [14]: 82.5%
- viability, T/C [15]: 73.7%
- viability, T/C [16]: 69.2%
- viability, T/C [17]: 68.4%
- viability, T/C [18]: 61.5%
- viability, T/C [19]: 80.4%
- viability, T/C [20]: 61.5%
- viability, T/C [21]: 59.4%
- viability, T/C [22]: 63.5%
- viability, T/C [23]: 73.3%
- viability, T/C [24]: 63.6%
- viability, T/C [25]: 52.3%
- viability, T/C [26]: 52.6%
- viability, T/C [27]: 48.6%
- viability, T/C [28]: 60.9%
- viability, T/C [29]: 52.8%
- viability, T/C [30]: 55.1%
- viability, T/C [31]: 31.6%
- viability, T/C [32]: 19.9%
- viability, T/C [33]: 23.6%
- viability, T/C [34]: 21.2%
- viability, T/C [35]: 27.5%
- viability, T/C [36]: 16.8%
